Each block holds one compound with its values, some of them ahead of it. Activity calls are given as the source filed them. No cut-off for these calls is given here.
Experiments:
T47D [1] = experiment: Inhibition of ER-positive human T47D cell proliferation assessed as [3H]thymidine incorporation into DNA helix after 3 days by betaplate counting analysis; format: functional, cell-based
MDA-MB-231 [2] = experiment: Cell cycle arrest in human MDA-MB-231 cells assessed as cell accumulation at S phase at 1 uM after 16 to 24 hrs by flow cytometry; format: functional, cell-based
[3] = Inhibition of ER-positive human KPL1 cell proliferation assessed as [3H]thymidine incorporation into DNA helix after 3 days by betaplate counting analysis; format: functional, cell-based; conditions: KPL-1
[4] = Inhibition of ER-positive human TamR6 cell proliferation assessed as [3H]thymidine incorporation into DNA helix after 3 days by betaplate counting analysis; format: functional, cell-based
MCF7 [5] = experiment: Cell cycle arrest in human MCF7 cells assessed as cell accumulation at S phase at 1 uM after 16 to 24 hrs by flow cytometry; format: functional, cell-based
MDA-MB-468 [6] = experiment: Cell cycle arrest in human MDA-MB-468 cells assessed as cell accumulation at S phase at 1 uM after 16 to 24 hrs by flow cytometry; format: functional, cell-based
[7] = Inhibition of ER-positive human TamR7 cell proliferation assessed as [3H]thymidine incorporation into DNA helix after 3 days by betaplate counting analysis; format: functional, cell-based
MDA-MB-453 = experiment: Inhibition of oestrogen, progesterone and HER2/neu receptor triple negative human MDA-MB-453 cell proliferation assessed as [3H]thymidine incorporation into DNA helix after 3 days by betaplate counting analysis; format: functional, cell-based
SK-BR-3 = experiment: Inhibition of HER2-overexpressing human SKBR3 cell proliferation assessed as [3H]thymidine incorporation into DNA helix after 3 days by betaplate counting analysis; format: functional, cell-based
MDA-MB-468 [8] = experiment: Cell cycle arrest in human MDA-MB-468 cells assessed as cell shifting from dominant G0/G1 phases to G2/M phases at 1 uM after 16 to 24 hrs by flow cytometry; format: functional, cell-based
MCF7 [9] = experiment: Cell cycle arrest in human MCF7 cells assessed as cell shifting from dominant G0/G1 phases to G2/M phases at 1 uM after 16 to 24 hrs by flow cytometry; format: functional, cell-based
[10] = Inhibition of ER-positive human TamR3 cell proliferation assessed as [3H]thymidine incorporation into DNA helix after 3 days by betaplate counting analysis; format: functional, cell-based
MDA-MB-231 [11] = experiment: Induction of morphological changes in red fluorescent labelled human MDA-MB-231 cells assessed as rounded-up cells after 16 hrs by microscopic analysis; format: functional, cell-based
MCF7 [12] = experiment: Inhibition of ER-positive human MCF7 cell proliferation assessed as [3H]thymidine incorporation into DNA helix after 3 days by betaplate counting analysis; format: functional, cell-based
MDA-MB-231 [13] = experiment: Inhibition of oestrogen, progesterone and HER2/neu receptor triple negative human MDA-MB-231 cell proliferation assessed as [3H]thymidine incorporation into DNA helix after 3 days by betaplate counting analysis; format: functional, cell-based
[14] = Inhibition of ER-positive human TamC6 cell proliferation assessed as [3H]thymidine incorporation into DNA helix after 3 days by betaplate counting analysis; format: functional, cell-based
MDA-MB-231 [15] = experiment: Inhibition of red fluorescent mKATE2 labelled human MDA-MB-231 cell migration assessed as displacement of wound edges at 1 uM after 24 hrs by wound healing assay; format: functional; conditions: MDA-MB-231, 24 h
HBL-100 = experiment: Inhibition of oestrogen, progesterone and HER2/neu receptor triple negative human HBL100 cell proliferation assessed as [3H]thymidine incorporation into DNA helix after 3 days by betaplate counting analysis; format: functional, cell-based
MDA-MB-231 [16] = experiment: Reduction in red fluorescent mKATE2 labelled human MDA-MB-231 cell number at 1 uM after 24 hrs by fluorescent microscopic analysis; format: ADME, cell-based; conditions: mda-mb-231, 24 h
T47D [17] = experiment: Cell cycle arrest in human T47D cells assessed as cell accumulation at S phase at 1 uM after 16 to 24 hrs by flow cytometry; format: functional, cell-based
MDA-MB-436 = experiment: Inhibition of oestrogen, progesterone and HER2/neu receptor triple negative human MDA-MB-436 cell proliferation assessed as [3H]thymidine incorporation into DNA helix after 3 days by betaplate counting analysis; format: functional
MDA-MB-468 [18] = experiment: Inhibition of oestrogen, progesterone and HER2/neu receptor triple negative human MDA-MB-468 cell proliferation assessed as [3H]thymidine incorporation into DNA helix after 3 days by betaplate counting analysis; format: functional, cell-based
MDA-MB-231 [19] = experiment: Cell cycle arrest in human MDA-MB-231 cells assessed as cell shifting from dominant G0/G1 phases to G2/M phases at 1 uM after 16 to 24 hrs by flow cytometry; format: functional, cell-based
BT-20 = experiment: Inhibition of oestrogen, progesterone and HER2/neu receptor triple negative human BT20 cell proliferation assessed as [3H]thymidine incorporation into DNA helix after 3 days by betaplate counting analysis; format: functional, cell-based
[20] = Inhibition of ER-positive human TamC3 cell proliferation assessed as [3H]thymidine incorporation into DNA helix after 3 days by betaplate counting analysis; format: functional, cell-based
MDA-MB-435 = experiment: Inhibition of oestrogen, progesterone and HER2/neu receptor triple negative human MDA-MB-435 cell proliferation assessed as [3H]thymidine incorporation into DNA helix after 3 days by betaplate counting analysis; format: functional, cell-based
T47D [21] = experiment: Cell cycle arrest in human T47D cells assessed as cell shifting from dominant G0/G1 phases to G2/M phases at 1 uM after 16 to 24 hrs by flow cytometry; format: functional, cell-based
MDA-MB-231 [22] = experiment: Growth inhibition of human MDA-MB-231 cells after 3 days by DAPI staining; format: functional; conditions: MDA-MB-231, 72 h
MDA-MB-231 [23] = experiment: Induction of morphological changes in red fluorescent labelled human MDA-MB-231 cells assessed as rounded-up cells at 6.25 to 1000 nM after 16 hrs by microscopic analysis; format: functional, cell-based

IC50 (T47D [1]): 570 nM | IC50 (MDA-MB-453): 186 nM | IC50 (SK-BR-3): 138 nM | IC50 (MCF7 [12]): 125 nM | IC50 (MDA-MB-231 [13]): 357 nM | IC50 (MDA-MB-436): 157 nM | IC50 (MDA-MB-468 [18]): 163 nM | IC50 (BT-20): 194 nM | IC50 (MDA-MB-435): 77 nM
Structure (SMILES): Nc1c(C(=O)Nc2cccc(Cl)c2)sc2nc3c(cc12)C(=O)CCC3
Activity (MDA-MB-231 [2]): inactive | IC50 [3]: 106 nM | IC50 [4]: 105 nM | Activity (MCF7 [5]): inactive | Activity (MDA-MB-468 [6]): inactive | IC50 [7]: 154 nM | Activity (MDA-MB-468 [8]): Active | Activity (MCF7 [9]): Active | IC50 [10]: 120 nM | Activity (MDA-MB-231 [11]): Active | IC50 [14]: 102 nM | inhibition at 1 µM (MDA-MB-231 [15]): 50% | IC50 (HBL-100): 265 nM | Activity (MDA-MB-231 [16]): Toxic | Activity (T47D [17]): inactive | Activity (MDA-MB-231 [19]): Active | IC50 [20]: 122 nM | Activity (T47D [21]): Active

GI50 (MDA-MB-231 [22]): 25 nM
Structure (SMILES): CC(=O)Nc1cccc(-n2c(=O)n(C3CC3)c(=O)c3c(Nc4ccc(I)cc4F)n(C)c(=O)c(C)c32)c1 [TRAMETINIB]
Activity (MDA-MB-231 [23]): inactive
